How the values were obtained:
[1] = target: T1, Human immunodeficiency virus type 1 protease (Human immunodeficiency virus 1, UniProt Q72874); assay: Inhibition of HIV-1 protease by fluorometric assay
[2] = target: T1, Human immunodeficiency virus type 1 protease; assay: Inhibition of recombinant HIV-1 protease measured by fluorometric assay

Row | SMILES | Ki [1] [nM] | Ki [2] [nM]
1 | O=S1(=O)N(Cc2ccccc2)[C@H](COc2ccccc2)[C@H](O)[C@@H](O)[C@@H](COc2ccccc2)N1Cc1ccccc1 | 22.9 | 23
2 | C/C(=N\O)c1cccc(CN2[C@H](COc3ccccc3)[C@H](O)[C@@H](O)[C@@H](COc3ccccc3)N(Cc3cccc(/C(C)=N/O)c3)S2(=O)=O)c1 | 3.39 | 3.4
3 | O=C1N(Cc2ccccc2)[C@H](COc2ccccc2)[C@H](O)[C@@H](O)[C@@H](COc2ccccc2)N1Cc1ccccc1 | – | 11
4 | O=S1(=O)N(Cc2ccc(-c3cccs3)cc2)[C@@H](COc2ccccc2)[C@@H](O)[C@H](O)[C@H](COc2ccccc2)N1Cc1ccc(-c2cccs2)cc1 | 912 | 920
5 | O=C(CN1[C@@H](COc2ccccc2)[C@@H](O)[C@H](O)[C@H](COc2ccccc2)N(Cc2ccc(-c3cccs3)cc2)S1(=O)=O)Nc1nccs1 | 1780 | 1800
6 | O=C(CN1[C@@H](COc2ccccc2)[C@@H](O)[C@H](O)[C@H](COc2ccccc2)N(Cc2cccc(-c3cccs3)c2)S1(=O)=O)Nc1nccs1 | 141 | 140
7 | O=S1(=O)N(Cc2cccc(CCO)c2)[C@@H](COc2ccccc2)[C@@H](O)[C@H](O)[C@H](COc2ccccc2)N1Cc1cccc(CCO)c1 | 42.7 | 43
8 | CC(=O)c1cccc(CN2[C@@H](COc3ccccc3)[C@@H](O)[C@H](O)[C@H](COc3ccccc3)N(Cc3cccc(C(C)=O)c3)S2(=O)=O)c1 | 58.9 | 59
9 | O=S1(=O)N(Cc2ccccc2)[C@@H](COc2ccccc2)[C@@H](O)[C@H](O)[C@H](COc2ccccc2)N1Cc1cccc(-c2cccs2)c1 | 85.1 | 86
10 | O=S1(=O)N(Cc2ccccc2)[C@@H](COc2ccccc2)[C@@H](O)[C@H](O)[C@H](COc2ccccc2)N1Cc1ccc(-c2cccs2)cc1 | 63.1 | 63
11 | O=S1(=O)N(Cc2ccc(-c3cccs3)cc2)[C@@H](COc2ccccc2)[C@@H](O)[C@H](O)[C@H](COc2ccccc2)N1Cc1cccc(-c2cccs2)c1 | 6030 | 6000
12 | O=S1(=O)N(Cc2cccc(-c3cccs3)c2)[C@@H](COc2ccccc2)[C@@H](O)[C@H](O)[C@H](COc2ccccc2)N1Cc1cccc(-c2cccs2)c1 | 2190 | 2200
13 | O=S1(=O)N(Cc2ccc(CO)cc2)[C@@H](COc2ccccc2)[C@@H](O)[C@H](O)[C@H](COc2ccccc2)N1Cc1ccc(CO)cc1 | 3.09 | 3.1
14 | COC(Cc1cccc(CN2[C@@H](COc3ccccc3)[C@@H](O)[C@H](O)[C@H](COc3ccccc3)N(Cc3cccc(CC(OC)OC)c3)S2(=O)=O)c1)OC | 537 | 540
15 | COC(=O)c1ccc(CN2[C@@H](COc3ccccc3)[C@@H](O)[C@H](O)[C@H](COc3ccccc3)N(Cc3ccc(C(=O)OC)cc3)S2(=O)=O)cc1 | 83.2 | 84

Results, then the molecule that gave them:

Row | Ki [1] [nM] | Ki [2] [nM] | SMILES
16 | 513 | 510 | O=C(CN1[C@@H](COc2ccccc2)[C@@H](O)[C@H](O)[C@H](COc2ccccc2)N(Cc2cccc(I)c2)S1(=O)=O)Nc1nccs1
17 | 1410 | 1400 | CNC(=O)CN1[C@@H](COc2ccccc2)[C@@H](O)[C@H](O)[C@H](COc2ccccc2)N(Cc2ccccc2)S1(=O)=O
18 | 347 | 350 | O=C(CN1[C@@H](COc2ccccc2)[C@@H](O)[C@H](O)[C@H](COc2ccccc2)N(Cc2ccccc2)S1(=O)=O)Nc1nccs1
19 | 513 | 510 | CN1[C@@H](COc2ccccc2)[C@@H](O)[C@H](O)[C@H](COc2ccccc2)N(Cc2ccccc2)S1(=O)=O
20 | 38.9 | 39 | CNC(=O)c1cccc(CN2[C@@H](COc3ccccc3)[C@@H](O)[C@H](O)[C@H](COc3ccccc3)N(Cc3cccc(C(=O)NC)c3)S2(=O)=O)c1
21 | 708 | 710 | CN1[C@@H](COc2ccccc2)[C@@H](O)[C@H](O)[C@H](COc2ccccc2)N(C)S1(=O)=O
22 | 25100 | 25000 | CNC(=O)CN1[C@@H](COc2ccccc2)[C@@H](O)[C@H](O)[C@H](COc2ccccc2)N(CC(=O)NC)S1(=O)=O
23 | 93.3 | 93 | O=S1(=O)N(Cc2cccc(I)c2)[C@@H](COc2ccccc2)[C@@H](O)[C@H](O)[C@H](COc2ccccc2)N1Cc1cccc(I)c1

From ChEMBL document CHEMBL1134693, “Synthesis and comparative molecular field analysis (CoMFA) of symmetric and nonsymmetric cyclic sulfamide HIV-1 protease inhibitors” (J Med Chem, 2001)
